pEC50: −log10 of the molar value.
Biological target: T1, Catalase (Rattus norvegicus, UniProt P04762)
T1 sequence (P04762 whole entry): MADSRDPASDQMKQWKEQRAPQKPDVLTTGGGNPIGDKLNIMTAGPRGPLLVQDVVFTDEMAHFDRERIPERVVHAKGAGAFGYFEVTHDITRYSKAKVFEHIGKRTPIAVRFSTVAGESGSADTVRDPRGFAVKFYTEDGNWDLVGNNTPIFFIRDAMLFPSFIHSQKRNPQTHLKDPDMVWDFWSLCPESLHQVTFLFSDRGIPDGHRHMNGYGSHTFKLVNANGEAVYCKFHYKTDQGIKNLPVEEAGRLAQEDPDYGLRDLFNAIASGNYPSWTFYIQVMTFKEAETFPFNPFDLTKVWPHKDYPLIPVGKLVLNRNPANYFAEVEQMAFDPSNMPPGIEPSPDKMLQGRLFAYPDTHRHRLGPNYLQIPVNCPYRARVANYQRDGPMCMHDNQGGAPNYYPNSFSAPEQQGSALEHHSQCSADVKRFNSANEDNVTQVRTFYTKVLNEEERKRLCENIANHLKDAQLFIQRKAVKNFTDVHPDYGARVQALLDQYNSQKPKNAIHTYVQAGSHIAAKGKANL
Assay: Inhibition of catalase in Wistar rat brain

`COc1ccc2c3c1O[C@H]1C[C@@H](OP(=O)(OCCO)N(CCCl)CCCl)C=C[C@@]31CCN(C)C2` (some centres not stated) gave a pEC50 of 5.39.
`COc1ccc2c3c1O[C@H]1C[C@@H](OP(=O)(NCCO)N(CCCl)CCCl)C=C[C@@]31CCN(C)C2` (some centres not stated) was tested, and the pEC50 was 5.55.
With `COc1ccc2c3c1O[C@H]1C[C@@H](OP(=O)(SCCO)N(CCCl)CCCl)C=C[C@@]31CCN(C)C2` (some centres not stated) the pEC50 was 5.52.
In the case of `COc1ccc2c3c1O[C@H]1C[C@@H](OP(=O)(NCCN)N(CCCl)CCCl)C=C[C@@]31CCN(C)C2` (some centres not stated), the pEC50 was 5.29.
`COc1ccc2c3c1O[C@H]1C[C@@H](OP(=O)(NCCO)Oc4ccc([N+](=O)[O-])cc4)C=C[C@@]31CCN(C)C2` (some centres not stated) gave a pEC50 of 5.03.
`COc1ccc2c3c1O[C@H]1C[C@@H](OP(=O)(NCCN)Oc4ccc([N+](=O)[O-])cc4)C=C[C@@]31CCN(C)C2` (some centres not stated) showed a pEC50 of 5.47.
Compound `COc1ccc2c3c1O[C@H]1C[C@@H](OP(=O)(OCCO)Oc4ccc([N+](=O)[O-])cc4)C=C[C@@]31CCN(C)C2` (some centres not stated) has a pEC50 of 5.21.
`COc1ccc2c3c1O[C@H]1C[C@@H](OP(=O)(OP(=O)(O)O)N(CCCl)CCCl)C=C[C@@]31CCN(C)C2` (some centres not stated) showed a pEC50 of 5.42.
In the case of `COc1ccc2c3c1O[C@H]1C[C@@H](OP(=O)(Oc4ccc([N+](=O)[O-])cc4)SCCO)C=C[C@@]31CCN(C)C2` (some centres not stated), the pEC50 was 5.11.
In the case of `COc1ccc2c3c1O[C@H]1C[C@@H](OP(=O)(Oc4ccc([N+](=O)[O-])cc4)OP(=O)(O)O)C=C[C@@]31CCN(C)C2` (some centres not stated), the pEC50 was 5.29.
Compound `Cc1c(C)c2c(c(C)c1O)CC[C@@](C)(CCC[C@H](C)CCC[C@H](C)CCCC(C)C)O2` [CHEBI:18145] has a pEC50 of 5.46.
Work on `COc1ccc2c3c1O[C@H]1C[C@@H](O)C=C[C@@]31CCN(C)C2` [galantamine] yielded a pEC50 of 4.75.

Reference: BindingDB's records for doi:10.1016/j.ejmech.2009.09.045 (Sri Venkateswara University, 2010)
